Measurements: US9815831B2, “3,5-disubstituted-3H-imidazo[4,5-B]pyridine and 3,5-disubstituted-3H-[1,2,3]triazolo[4,5-B] pyridine compounds as modulators of c-Met protein kinases” (Rhizen Pharmaceuticals SA, priority 2012, dated 2017)
Where two headings read alike, the source gives them in different places.

Tests used:
Akt [1] = experiment: Inhibition of Akt phosphorylation in MKN-45 cells (Western blot); format: cell-based; conditions: Homo sapiens, Table 6, 0-1000 nM
Procedure: (§1) 6. Inhibition of Akt Phosphorylation in MKN-45 or NCI-H441 Cells:
(§2) Akt is a serine-threonine kinase and a downstream marker regulated by c-Met kinase via the PI3K pathway. Once phosphorylated, Akt regulates several end processes including cell survival and growth. Cells were treated with 0-1000 nM of test compounds, lysed, and the proteins separated on a 10% SDS-PAGE. Following separation, proteins were transferred onto a nitrocellulose membrane and detected by chemiluminescence after incubation with […] (primary) and rabbit anti-mouse Ab (secondary). Intensity of the bands was determined using ImageJ 1.42q (NIH, USA) and normalized to Actin (loading control).
(§3) Results: The results are provided below as IC50 values in Table 6.

MKN-45 cells = experiment: Induction of apoptosis in MKN-45 cells (caspase-3 activity); format: cell-based, human; conditions: percentage induction @ 3 μM; caspase-3, MKN-45 cells, 24 h; percent of maximum response
Procedure: 7. Induction of Apoptosis in MKN-45 Cells: I
Induction of Caspase 3 was measured fluorimetrically. Cells were incubated with desired concentrations of the compound for 24 h. After incubation, cells were harvested and counted. An equal number of viable cells per well (0.3×10^6 cells) were used for determination of caspase-3 activity. Increase in apoptosis manifested by an elevation in caspase-3 levels was determined using a Caspase-3 kit from Millipore. Data are expressed as a percent of the maximum response (100%).
Results: The results are provided below as percentage induction @ 3 μM in Table 7.

Akt [2] = experiment: Inhibition of Akt phosphorylation in NCI-H441 cells (Western blot); format: cell-based; conditions: Homo sapiens, Table 6, 0-1000 nM
Procedure: as §1, §2, §3

[3] = molecular target: T1, human recombinant Met kinase (Homo sapiens, UniProt P08581); experiment: Colorimetric determination of c-Met kinase activity (HTScan Met Kinase Assay Kit); format: biochemical; conditions: read-out: c-Met Enzyme IC50
T1 construct: purchased Cell Signalling Technology, Beverly, Mass
T1 sequence (P08581 25-1390): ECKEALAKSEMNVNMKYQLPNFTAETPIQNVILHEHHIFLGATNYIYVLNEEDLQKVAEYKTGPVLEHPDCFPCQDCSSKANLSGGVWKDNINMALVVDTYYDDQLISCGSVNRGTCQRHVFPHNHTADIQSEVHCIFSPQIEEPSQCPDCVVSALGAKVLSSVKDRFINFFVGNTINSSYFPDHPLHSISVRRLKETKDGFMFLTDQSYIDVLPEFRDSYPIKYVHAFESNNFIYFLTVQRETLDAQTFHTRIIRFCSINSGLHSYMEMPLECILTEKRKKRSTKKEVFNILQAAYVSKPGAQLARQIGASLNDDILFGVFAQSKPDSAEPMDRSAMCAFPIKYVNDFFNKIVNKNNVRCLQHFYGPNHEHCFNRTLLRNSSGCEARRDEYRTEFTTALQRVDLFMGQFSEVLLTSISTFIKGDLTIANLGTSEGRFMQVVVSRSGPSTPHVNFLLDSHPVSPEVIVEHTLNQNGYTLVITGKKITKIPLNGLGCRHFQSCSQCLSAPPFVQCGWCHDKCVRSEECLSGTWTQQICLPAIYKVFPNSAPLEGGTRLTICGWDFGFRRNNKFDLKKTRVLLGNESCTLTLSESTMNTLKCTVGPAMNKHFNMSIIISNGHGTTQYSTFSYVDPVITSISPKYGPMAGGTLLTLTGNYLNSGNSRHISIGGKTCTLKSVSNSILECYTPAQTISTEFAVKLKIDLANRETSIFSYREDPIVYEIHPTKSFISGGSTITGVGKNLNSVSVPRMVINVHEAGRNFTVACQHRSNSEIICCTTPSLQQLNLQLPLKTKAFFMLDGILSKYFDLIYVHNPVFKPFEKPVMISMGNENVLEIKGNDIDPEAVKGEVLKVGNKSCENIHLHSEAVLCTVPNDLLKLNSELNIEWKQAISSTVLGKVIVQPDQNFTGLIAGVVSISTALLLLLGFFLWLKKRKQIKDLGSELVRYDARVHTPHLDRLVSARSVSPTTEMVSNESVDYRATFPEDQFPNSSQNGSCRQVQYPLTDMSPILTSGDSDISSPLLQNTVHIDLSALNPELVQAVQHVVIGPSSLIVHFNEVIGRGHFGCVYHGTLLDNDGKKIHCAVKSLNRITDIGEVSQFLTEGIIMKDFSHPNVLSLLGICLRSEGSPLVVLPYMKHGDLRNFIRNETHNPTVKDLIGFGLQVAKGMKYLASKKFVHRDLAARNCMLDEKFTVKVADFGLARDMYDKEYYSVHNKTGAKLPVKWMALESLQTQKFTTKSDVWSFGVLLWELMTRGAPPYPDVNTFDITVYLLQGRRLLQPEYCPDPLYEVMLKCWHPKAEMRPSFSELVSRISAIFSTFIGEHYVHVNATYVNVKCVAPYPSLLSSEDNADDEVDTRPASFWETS

c-Met kinase [4] = molecular target: T2, c-Met kinase (Homo sapiens, UniProt P08581); experiment: Inhibition of c-Met kinase phosphorylation in MKN-45 cells (cell based ELISA); parameters: endogenous in cells; host or cells: MKN-45; conditions: Table 4D, 1 h incubation
T2 sequence (P08581 25-1390): as above
Procedure: MKN45 cells are a prototype of “c-Met addicted” cells having constitutively activated c-Met kinase similar to that observed in sub-sects of gastric or hepatocellular cancer patients with dysregulated c-Met kinase activity. Inhibition of Met phosphorylation was determined using a cell based ELISA assay according to the following schedule: • Day 1: MKN-45 cells were plated in 96-well plates in complete growth medium. • Day 2: Inhibitors at the desired concentration were added to the plates and incubated for 1 h and lysed subsequently. Lysates were transferred to NUNC Maxisorp plates coated with anti-cMet receptor antibody. Phopho-tyrosine mAb and HRP-lined anti-mouse IgG were used as primary and secondary antibodies respectively. Optical density was measured on a microplate reader (BMG Labtech., Germany) at […]. Inhibition of c-Met phosphorylation in this cell line indicates a therapeutic potential for test compounds in patients diagnosed with cancers caused by aberrant c-Met kinase signalling. Results: The results are provided above in Table 4D as IC50 values.

c-Met kinase [5] = molecular target: T2, c-Met kinase; experiment: Inhibition of c-Met kinase phosphorylation in NCI-H441 cells (cell based ELISA); conditions: Table 5, 1 h incubation
Procedure: 5. Inhibition of c-Met Kinase Phosphorylation in NCI-H441 Cells:
Inhibition of Met phosphorylation was determined using a cell based ELISA assay according to the following schedule: • Day 1: NCI-H441 cells were plated in 96-well plates in complete growth medium. • Day 2: Inhibitors at the desired concentration were added to the plates, incubated for 1 h and lysed subsequently. Lysates were transferred to NUNC Maxisorp plates coated with anti-cMet receptor antibody. Phopho-tyrosine mAb and HRP-lined anti-mouse IgG were used as primary and secondary antibodies respectively. Optical density was measured on a microplate reader (BMG Labtech., Germany) at […]. […] Results: The results are given below in Table 5 as IC50 values.

MDA-MB-231 cells = experiment: Inhibition of HGF-induced cell proliferation in MDA-MB-231 cells (MTT); format: cell-based; conditions: Homo sapiens, Table 8, HGF (50 ng/ml)
Procedure: 8. Inhibition of HGF-Induced Met Phosphorylation in MDA-MB-231 Cells:
MDA-MB-231 is a breast cancer cell line having a high level of c-Met expression. Activation of Met kinase in these cells occurs only after the addition of its natural ligand, Hepatocyte Growth Factor (HGF). Upon binding to the extracellular domain of the enzyme, it triggers phosphorylation of tyrosine residues and regulates several downstream events such as cell proliferation. Cell proliferation assays were carried out using the high Met expressing cell line (MDA-MB-231) according to the following schedule: • Day 1: Cells were plated in 96-well plates in complete growth medium. • Day 2: Media was replaced with starvation medium containing 0.04% BSA. • Day 3: Inhibitors at the desired concentrations and HGF (50 ng/ml) were added. • Day 5: Cell viability was determined using the 3-[4,5-dimethylthiazol-2-yl]-2,5-diphenyltetrazolium bromide (MTT) dye reduction test. […] Results: The results are provided below in Table 8 as IC50 values.

MKN-45 = experiment: Inhibition of MKN-45 proliferation (MTT); format: cell-based, human; conditions: Homo sapiens, MKN-45 proliferation; for inhibition at 0.1 µM: 100 nM, read-out: MKN45 % inhibition @ 100 nM; for GI50: read-out: MKN45 GI50
Summary of the method: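 High-Met human gastric adenocarcinoma MKN-45 cells plated on day 1 and exposed to compound from day 2. Viability measured by MTT dye reduction on day 5; output given as % inhibition at 100 nM and GI50.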

[6] = molecular target: T1, human recombinant Met kinase; experiment: Colorimetric determination of c-Met kinase activity (HTScan Met Kinase Assay Kit); format: biochemical; conditions: 100 nM (cells without *), read-out: c-Met Enzyme % inhibition @ 100 nM
Summary of the method: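 Human recombinant Met kinase was preincubated with compound for 5 min at room temperature, then reacted with ATP and biotinylated peptide for 30 min; EDTA stop. Phosphopeptide captured on streptavidin and detected with phospho-tyrosine mAb and europium anti-mouse IgG by time-resolved fluorescence (340/615 nm). Reported as % inhibition or IC50.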

| Compound | IC50 (Akt [1]) [nM] | IC50 (Akt [2]) [nM] | IC50 ([3]; Table 4A) [nM] | IC50 (c-Met kinase [4]) [nM] | IC50 (c-Met kinase [5]) [nM] | IC50 (MDA-MB-231 cells) [nM] | GI50 (MKN-45; MKN-45, Table 4A) [nM] | inhibition at 0.1 µM ([6]; Table 4A) [%] | melting point [°C] | inhibition at 0.1 µM ([6]; Table 4C) [%] | IC50 ([3]; Table 4C) [nM] | GI50 (MKN-45; MKN-45, Table 4C) [nM] | % induction of caspase-3 activity (MKN-45 cells) | inhibition at 0.1 µM (MKN-45; MKN-45, Table 4A) [%] |
| --- | --- | --- | --- | --- | --- | --- | --- | --- | --- | --- | --- | --- | --- | --- |
| O=C(NOCCO)c1c(F)cc(-c2ccc3nnn(Cc4ccc5ncsc5c4)c3n2)cc1F [Example 19, 4-(3-(benzo[d]thiazol-6-ylmethyl)-3H-[1,2,3]triazolo[4,5-b]pyridin-5-yl)-2,6-difluoro-N-(2-hydroxyethoxy)benzamide] |  |  | 25 to 50 |  |  |  | 50 to 100 | 75 to 100 | 202 to 205 |  |  |  |  | 25 to 50 |
| O=C(NOCCO)c1ccc(-c2ccc3nnn(Cc4ccc5ncsc5c4)c3n2)cc1F [Example 20, 4-(3-(benzo[d]thiazol-6-ylmethyl)-3H-[1,2,3]triazolo[4,5-b]pyridin-5-yl)-2-fluoro-N-(2-hydroxyethoxy)benzamide] |  |  | 25 to 50 |  |  |  | 50 to 100 | 75 to 100 | 164 to 166 |  |  |  |  | 75 to 100 |
| Cc1ccc2cc(Cn3nnc4ccc(-c5cc(F)c(C(=O)NOCCO)c(F)c5)nc43)ccc2n1 [Example 21, 2,6-difluoro-N-(2-hydroxyethoxy)-4-(3-((2-methylquinolin-6-yl)methyl)-3H-[1,2,3]triazolo[4,5-b]pyridin-5-yl) benzamide] |  |  | 25 to 50 |  |  |  |  | 75 to 100 | 208 to 210 |  |  |  |  | < 25 |
| C[C@H](O)CONC(=O)c1ccc(-c2ccc3nnn(Cc4ccc5ncccc5c4)c3n2)cc1Cl [Example 31, (S)-2-chloro-N-(2-hydroxypropoxy)-4-(3-(quinolin-6-ylmethyl)-3H-[1,2,3]triazolo[4,5-b]pyridin-5-yl) benzamide] |  |  |  | ≤ 10 |  |  | 25 to 50 | 50 to 75 |  |  |  |  |  | 50 to 75 |
| C[C@@H](O)CONC(=O)c1ccc(-c2ccc3nnn(Cc4ccc5ncccc5c4)c3n2)cc1Cl [Example 32, (R)-2-chloro-N-(2-hydroxypropoxy)-4-(3-(quinolin-6-ylmethyl)-3H-[1,2,3]triazolo[4,5-b]pyridin-5-yl) benzamide] |  |  | 25 to 50 | ≤ 10 |  |  | 25 to 50 | 75 to 100 |  |  |  |  |  | 75 to 100 |
| Cc1cc(-c2ccc3nnn(Cc4ccc5ncccc5c4)c3n2)ccc1C(=O)NOCC(C)(C)O [Example 33, N-(2-hydroxy-2-methylpropoxy)-2-methyl-4-(3-(quinolin-6-ylmethyl)-3H-[1,2,3]triazolo[4,5-b]pyridin-5-yl)benzamide] | 25 to 50 | ≤ 10 |  | 10 to 25 | ≤ 10 | 10 to 50 |  | 75 to 100 |  |  |  |  | A (A is ≧75) |  |
| NC(=O)c1ccc(-c2ccc3ncn(Cc4ccc5ncccc5c4)c3n2)cc1C(F)(F)F [Example 1024, 4-(3-Quinolin-6-ylmethyl-3H-imidazo[4,5-b]pyridin-5-yl)-2-trifluoromethyl-benzamide] |  |  |  |  |  |  |  |  | 243 to 245 | 75 to 100 | < 25 | 100 to 250 |  |  |

Now from value to molecule, other results behind:

| IC50 (Akt [1]) [nM] | IC50 (Akt [2]) [nM] | IC50 ([3]; Table 4A) [nM] | IC50 (c-Met kinase [4]) [nM] | IC50 (c-Met kinase [5]) [nM] | IC50 (MDA-MB-231 cells) [nM] | GI50 (MKN-45; MKN-45, Table 4A) [nM] | inhibition at 0.1 µM ([6]; Table 4A) [%] | melting point [°C] | inhibition at 0.1 µM ([6]; Table 4C) [%] | IC50 ([3]; Table 4C) [nM] | GI50 (MKN-45; MKN-45, Table 4C) [nM] | Compound | % induction of caspase-3 activity (MKN-45 cells) | inhibition at 0.1 µM (MKN-45; MKN-45, Table 4A) [%] |
| --- | --- | --- | --- | --- | --- | --- | --- | --- | --- | --- | --- | --- | --- | --- |
| 10 to 25 | ≤ 10 | 25 to 50 | 25 to 50 | ≤ 10 | < 10 | 25 to 50 |  |  |  |  |  | O=C(NOCCO)c1ccc(-c2ccc3nnn(Cc4ccc5ncccc5c4)c3n2)cc1Cl [Example 6, 2-chloro-N-(2-hydroxyethoxy)-4-(3-(quinolin-6-ylmethyl)-3H-[1,2,3]triazolo[4,5-b]pyridin-5-yl)benzamide] | B (B is <75 and ≧50) | 75 to 100 |
| ≤ 10 | ≤ 10 | 25 to 50 | ≤ 10 | ≤ 10 |  | 25 to 50 | 75 to 100 |  |  |  |  | O=C(NOCCO)c1ccc(-c2ccc3nnn(Cc4cc5cccnc5cc4F)c3n2)cc1Cl [Example 7, 2-chloro-4-(3-((7-fluoroquinolin-6-yl)methyl)-3H-[1,2,3]triazolo[4,5-b]pyridin-5-yl)-N-(2-hydroxyethoxy)benzamide] | A (A is ≧75) | 75 to 100 |
| 50 to 250 | ≤ 10 | 25 to 50 | 50 to 500 | 25 to 50 |  | 50 to 100 | 75 to 100 |  |  |  |  | O=C(NOCCO)c1c(F)cc(-c2ccc3nnn(Cc4ccc5ncccc5c4)c3n2)cc1F [Example 8, 2,6-difluoro-N-(2-hydroxyethoxy)-4-(3-(quinolin-6-ylmethyl)-3H-[1,2,3]triazolo[4,5-b]pyridin-5-yl)benzamide] | C (C is <50 and ≧25) | 25 to 50 |
| 50 to 250 | 10 to 25 | 25 to 50 | 25 to 50 | 10 to 25 |  | 50 to 100 | 75 to 100 |  |  |  |  | O=C(NOCCO)c1c(F)cc(-c2ccc3nnn(Cc4cc5cccnc5cc4F)c3n2)cc1F [Example 9, 2,6-difluoro-4-(3-((7-fluoroquinolin-6-yl)methyl)-3H-[1,2,3]triazolo[4,5-b]pyridin-5-yl)-N-(2-hydroxyethoxy)benzamide] | A (A is ≧75) | 75 to 100 |
